SMILES strings stand for the structures. In brackets after ≈: the same amount, converted by molar mass.

One assay deals with Staphylococcus aureus. Put plainly: Antibacterial activity against methicillin-resistant Staphylococcus aureus by NCCLS M7-A4 method. The class given is functional.
Assay [1] has as its system Mycolicibacterium smegmatis. Briefly: Antibacterial activity against Mycobacterium smegmatis. The class given is functional.

As to `C=CCC/C=C/C#CC#CCCCCCCCC(=O)O`, the MIC in the assay on Staphylococcus aureus came to 25 µg/mL (≈ 91.8 µM); in assay [1] it was 12.5 µg/mL (≈ 45.9 µM).
In turn, `NNC(=O)c1ccncc1` [ISONIAZID] registered an MIC in assay [1] of 0.8 µg/mL (≈ 5.83 µM).
Regarding `C=CCCC#CC#CC#CCCCCCCCC(=O)O` [OROPHEIC ACID], the minimal inhibitory concentration (MIC) (in the assay on Staphylococcus aureus; in assay [1]) was 12.5 µg/mL (≈ 46.2 µM) throughout.
`CN[C@H](CC(C)C)C(=O)N[C@H]1C(=O)N[C@@H](CC(N)=O)C(=O)N[C@H]2C(=O)N[C@H]3C(=O)N[C@H](C(=O)N[C@H](C(=O)O)c4cc(O)cc(O)c4-c4cc3ccc4O)[C@H](O)c3ccc(c(Cl)c3)Oc3cc2cc(c3O[C@@H]2O[C@H](CO)[C@@H](O)[C@H](O)[C@H]2O[C@H]2C[C@](C)(N)[C@H](O)[C@H](C)O2)Oc2ccc(cc2Cl)[C@H]1O` [VANCOMYCIN]: in the assay with Staphylococcus aureus, the lowest concentration to inhibit growth (MIC) was 0.8 µg/mL (≈ 0.552 µM).

The values above are taken from ChEMBL document CHEMBL1156365, “Polyacetylene carboxylic acids from Mitrephora celebica” (2001).
